In patent US12564596B2, “Agents and methods for modulating pathogen activity” (Griffith University, priority 2018, dated 2026):

Tests used:
[1] = tested on: N. gonorrhoeae adherence to primary human cervical epithelial (PEX) cells; test: Fluorometric adherence assay, gonococci to PEX cells; assay type: cell-based, Neisseria gonorrhoeae
Description: Briefly, six N. gonorrhoeae strains were used in the experiments. These included the laboratory strain, MS11; the low-passage isolates, 1291, UT38097, LT38885, PID-26, and SK92-679; all of which were transformed with the green fluorescent protein (GFP) expression plasmid, pCmGFP (GenBank accession number FJ172221) Srikhanta et al (2009, PLoS Pathog. 5(4):e1000400) and, thus, expressed GFP Edwards et al (2000, Infect Immun 68(9):5354-63). […] The ability of carbamazepine to block the adherence of N. gonorrhoeae to human, primary cervical epithelial (PEX) cells was evaluated using a fluorometric adherence assay. Assays were performed essentially as described by Jen et al (2013, supra). In this regard, PEX cells were seeded to a 96-well plate and allowed to grow to confluence. Gonococci were then used to challenge (1 h) PEX cells simultaneously with, or without, various concentrations of carbamazepine ([…], 10 nM, 1 μM, or 100 μM, as noted) or 1% DMSO (vehicle control). Uninfected PEX cells treated with 1% DMSO served as a control for background fluorescence. Fluorescence (485/528 nm) intensity, corresponding to bacterial adherence, was recorded using a Synergy HT Multi-mode Microplate Reader (BioTek Instruments, Winooski, VT USA). The assay was performed in triplicate on 3 separate occasions. A Student's t-test was used to determine the statistical significance of the calculated mean of bacterial adherence.
The ability of the compounds, or negative controls to block adherence of N. gonorrhoeae strain MS11gfp to PEX cells, CHO-CR3, or CHO-neo cells was evaluated using a fluorometric microtiter plate assay. Assays were performed essentially as described by Jen et al. (2013, Plos Pathog 9(5): e1003377). In this regard, GFP-expressing gonococci were used to challenge (1 h) PEX or CHO cells immediately following compound addition. Fluorescence (485/528 nm) intensity, corresponding to bacterial adherence, was recorded using a Synergy HT Multi-mode Microplate Reader (BioTek Instruments, Winooski, VT USA). Blank wells, devoid of PEX or CHO cells, also were inoculated with bacteria and served as a control for non-specific binding. The assay was performed in triplicate on 3 separate occasions. A Student's t-test was used to determine the statistical significance of the calculated mean of bacterial adherence.

N. gonorrhoeae strains = test: Well diffusion assay in the absence of human cells; design: species or system Neisseria gonorrhoeae; conditions: GC-agar, overnight 37° C.; 100 μM to 100 μM [sic]
Procedure: (§1) FIG. 22 is a graphical representation showing the effect of carbamazepine on N. gonorrhoeae in the absence of human cells. Well diffusion assays were performed in which N. gonorrhoeae strains were spread uniformly across the surface of GC-agar plates at a culture density of 10^7 bacterial per mL. Wells were then punctured within the agar surface to which carbamazepine (Cz; […], as noted), 0.2 μg/mL ceftriaxone (Cfx), 10 μg/mL ciprofloxacin (Cip), or 1% DMSO (vehicle control) were added. […] For agar plates in which a ZOI was not visible, data were recorded as the diameter of the well (6 mm), as indicated. Assays were performed in triplicate on 3 separate occasions. Data are presented as the mean and variance of the average values obtained for each assay; statistical significance was determined using a Student's t-test. […] This is consistent with a CR3-dependent, host-mediated mechanism of killing.
as §1, with “23” for “22”, “methyldopa” for “carbamazepine”, “methyldopa (Md;” for “carbamazepine (Cz;”
FIG. 24 is a graphical representation showing the effect of flufenamic acid on N. gonorrhoeae in the absence of human cells. Well diffusion assays were performed in which N. gonorrhoeae strains were spread uniformly across the surface of GC-agar plates at a culture density of 10^7 bacterial per mL. Wells were then punctured within the agar surface to which flufenamic acid ([…], as noted), 0.2 μg/mL ceftriaxone, 10 μg/mL ciprofloxacin, or 1% DMSO (vehicle control) were added. […] For agar plates in which a ZOI was not visible, data were recorded as the diameter of the well (6 mm), as indicated. Assays were performed in triplicate on 3 separate occasions. Data are presented as the mean and variance of the average values obtained for each assay; statistical significance was determined using a Student's t-test.

SMILES: NC(=O)N1c2ccccc2C=Cc2ccccc21 [carbamazepine, 5H-dibenzo[b,f]azepine-5-carboxamide]
- gonococcal adherence to PEX cells with increasing concentrations ([1]; 1 h post-challenge): dose-dependent decrease
- inhibition at 1 µM ([1]; Neisseria gonorrhoeae, 1 h, read-out: inhibition of adherence to PEX cells): > 95%
- effect on N. gonorrhoeae in the absence of human cells (zone of inhibition) (N. gonorrhoeae strains): no effect
